Source: ChEMBL document CHEMBL5346907, “Discovery of a novel oral type Ⅰ CDK8 inhibitor against acute myeloid leukemia” (Eur J Med Chem, 2023)
The source made the active and inactive calls. No cut-off for these calls is given here.

What was measured:
[1] = test system: MOLM-13; assay: Antiproliferative activity against human MOLM-13 cells incubated for 48 hrs by CCK8 assay; assay type: functional
[2] = test system: HL-60; assay: Antiproliferative activity against human HL-60 cells incubated for 48 hrs by CCK8 assay; assay type: functional
[3] = molecular target: Receptor tyrosine-protein kinase erbB-4 (Homo sapiens) (UniProt Q15303); assay: Inhibition of HER4 (unknown origin) at 1 uM preincubated for 10 mins followed by substrate addition measured for 60 to 120 mins by HTRF assay relative to control; conditions: time 70-130 min
[4] = Acute toxicity in C57BL/6 mouse assessed as histopathological change in lung at 2000 mg/kg, IG measured for 14 days by H&E staining based analysis; assay type: organism-based; conditions: in vivo, po, 336 h, time 14 day
[5] = molecular target: Tyrosine-protein kinase JAK1 (Homo sapiens) (UniProt P23458); assay: Inhibition of JAK1 (unknown origin) at 1 uM preincubated for 10 mins followed by substrate addition measured for 60 to 120 mins by HTRF assay relative to control; conditions: time 70-130 min
[6] = Cmax in Sprague-Dawley rat at 10 mg/kg, po; assay type: ADME, organism-based; parameters: dose 10 mg/kg, route po; conditions: in vivo
[7] = molecular target: CDK8/Cyclin C (Homo sapiens) (UniProt P49336+P24863); assay: Inhibition of CDK8/Cyclin C (unknown origin) at 1 uM preincubated for 10 mins followed by substrate addition measured for 60 to 120 mins by HTRF assay relative to control; assay type: protein-complex assay; conditions: time 70-130 min
[8] = molecular target: Ephrin type-A receptor 2 (Homo sapiens) (UniProt P29317); assay: Inhibition of EPHA2 (unknown origin) at 1 uM preincubated for 10 mins followed by substrate addition measured for 60 to 120 mins by HTRF assay relative to control; conditions: time 70-130 min
Ephrin type-A receptor 2 (Homo sapiens), sequence (P29317 whole entry): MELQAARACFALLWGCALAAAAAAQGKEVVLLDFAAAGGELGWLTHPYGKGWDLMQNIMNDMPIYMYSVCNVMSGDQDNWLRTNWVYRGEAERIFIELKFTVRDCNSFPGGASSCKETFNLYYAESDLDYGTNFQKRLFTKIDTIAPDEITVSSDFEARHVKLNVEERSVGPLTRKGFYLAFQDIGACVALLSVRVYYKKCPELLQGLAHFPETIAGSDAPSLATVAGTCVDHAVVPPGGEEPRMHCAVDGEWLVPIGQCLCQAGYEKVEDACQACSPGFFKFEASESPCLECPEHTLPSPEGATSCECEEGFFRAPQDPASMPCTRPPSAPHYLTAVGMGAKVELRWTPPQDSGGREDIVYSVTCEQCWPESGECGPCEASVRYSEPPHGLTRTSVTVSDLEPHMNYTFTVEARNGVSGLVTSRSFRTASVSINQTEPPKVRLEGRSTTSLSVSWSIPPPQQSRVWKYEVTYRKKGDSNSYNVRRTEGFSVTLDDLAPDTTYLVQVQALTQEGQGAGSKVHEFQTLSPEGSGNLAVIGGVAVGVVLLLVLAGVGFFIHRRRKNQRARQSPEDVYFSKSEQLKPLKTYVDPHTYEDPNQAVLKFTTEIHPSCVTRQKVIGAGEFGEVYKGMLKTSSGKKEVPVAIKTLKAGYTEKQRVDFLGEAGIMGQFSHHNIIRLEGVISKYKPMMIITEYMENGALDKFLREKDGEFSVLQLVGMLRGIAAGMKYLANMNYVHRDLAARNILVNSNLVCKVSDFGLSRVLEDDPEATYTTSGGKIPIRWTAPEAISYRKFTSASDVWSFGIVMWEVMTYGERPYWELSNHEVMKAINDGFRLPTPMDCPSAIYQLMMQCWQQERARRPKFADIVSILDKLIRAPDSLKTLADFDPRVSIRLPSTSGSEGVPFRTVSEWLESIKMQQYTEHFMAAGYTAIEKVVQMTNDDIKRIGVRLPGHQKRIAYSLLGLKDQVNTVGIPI

[9] = molecular target: Macrophage colony-stimulating factor 1 receptor (Homo sapiens) (UniProt P07333); assay: Inhibition of CSF1R (unknown origin) at 1 uM preincubated for 10 mins followed by substrate addition measured for 60 to 120 mins by HTRF assay relative to control; conditions: time 70-130 min
[10] = molecular target: Tyrosine-protein kinase Lyn (Homo sapiens) (UniProt P07948); assay: Inhibition of LYN a (unknown origin) at 1 uM preincubated for 10 mins followed by substrate addition measured for 60 to 120 mins by HTRF assay relative to control; conditions: time 70-130 min
Tyrosine-protein kinase Lyn (Homo sapiens), sequence (P07948 2-512 limits assumed): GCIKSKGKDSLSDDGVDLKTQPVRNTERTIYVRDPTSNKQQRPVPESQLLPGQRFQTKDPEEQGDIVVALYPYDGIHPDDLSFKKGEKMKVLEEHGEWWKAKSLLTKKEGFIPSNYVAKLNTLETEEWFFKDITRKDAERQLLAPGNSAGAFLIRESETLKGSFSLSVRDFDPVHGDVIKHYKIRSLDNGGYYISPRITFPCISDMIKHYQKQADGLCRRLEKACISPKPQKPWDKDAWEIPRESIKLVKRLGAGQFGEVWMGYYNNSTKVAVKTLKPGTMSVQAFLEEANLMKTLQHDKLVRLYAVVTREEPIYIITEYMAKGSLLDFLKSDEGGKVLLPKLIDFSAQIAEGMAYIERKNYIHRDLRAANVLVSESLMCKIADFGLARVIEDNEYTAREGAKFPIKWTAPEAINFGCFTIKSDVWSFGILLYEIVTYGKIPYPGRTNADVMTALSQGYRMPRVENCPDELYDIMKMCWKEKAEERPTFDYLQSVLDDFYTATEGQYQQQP

[11] = test system: HL-60; assay: Induction of apoptosis in human HL-60 cells assessed as necrotic cells at 1 uM incubated for 48 hrs by annexin V-FITC/PI staining based flow cytometry (reference value: 0.26 %); assay type: functional
[12] = molecular target: Fibroblast growth factor receptor 2 (Homo sapiens) (UniProt P21802); assay: Inhibition of FGFR2 (unknown origin) at 1 uM preincubated for 10 mins followed by substrate addition measured for 60 to 120 mins by HTRF assay relative to control; conditions: time 70-130 min
[13] = test system: GES1; assay: Antiproliferative activity against human GES1 cells incubated for 48 hrs by CCK8 assay; assay type: functional
[14] = molecular target: Cyclin-dependent kinase 8 (Homo sapiens, UniProt P49336); assay: Inhibition of CDK8 (unknown origin) in presence of ATP by ADP-Glo assay
[15] = test system: C1498; assay: Downregulation of STAT1 S727 phosphorylation in mouse C1498 cells allografted in AML Balb/C mouse model at 40 to 80 mg/kg, po administered daily for 15 days measured after 3 weeks by IHC analysis; assay type: functional, organism-based; conditions: dose 40-80 mg/kg, time 15.0 day
[16] = test system: C1498; assay: Antitumor activity against mouse C1498 cells allografted in AML Balb/C mouse model assessed as decrease in Ki67 expression administered orally daily for 15 days measured after 3 weeks by IHC analysis; assay type: functional, cell-based; conditions: dose 40-80 mg/kg, route po, time 15.0 day
[17] = test system: MGC-803; assay: Antiproliferative activity against human MGC-803 cells incubated for 48 hrs by CCK8 assay; assay type: functional
[18] = molecular target: Ephrin type-B receptor 3 (Homo sapiens) (UniProt P54753); assay: Inhibition of EPHB3 (unknown origin) at 1 uM preincubated for 10 mins followed by substrate addition measured for 60 to 120 mins by HTRF assay relative to control; conditions: time 70-130 min
Ephrin type-B receptor 3 (Homo sapiens), sequence (P54753 whole entry, the tested form may be a part): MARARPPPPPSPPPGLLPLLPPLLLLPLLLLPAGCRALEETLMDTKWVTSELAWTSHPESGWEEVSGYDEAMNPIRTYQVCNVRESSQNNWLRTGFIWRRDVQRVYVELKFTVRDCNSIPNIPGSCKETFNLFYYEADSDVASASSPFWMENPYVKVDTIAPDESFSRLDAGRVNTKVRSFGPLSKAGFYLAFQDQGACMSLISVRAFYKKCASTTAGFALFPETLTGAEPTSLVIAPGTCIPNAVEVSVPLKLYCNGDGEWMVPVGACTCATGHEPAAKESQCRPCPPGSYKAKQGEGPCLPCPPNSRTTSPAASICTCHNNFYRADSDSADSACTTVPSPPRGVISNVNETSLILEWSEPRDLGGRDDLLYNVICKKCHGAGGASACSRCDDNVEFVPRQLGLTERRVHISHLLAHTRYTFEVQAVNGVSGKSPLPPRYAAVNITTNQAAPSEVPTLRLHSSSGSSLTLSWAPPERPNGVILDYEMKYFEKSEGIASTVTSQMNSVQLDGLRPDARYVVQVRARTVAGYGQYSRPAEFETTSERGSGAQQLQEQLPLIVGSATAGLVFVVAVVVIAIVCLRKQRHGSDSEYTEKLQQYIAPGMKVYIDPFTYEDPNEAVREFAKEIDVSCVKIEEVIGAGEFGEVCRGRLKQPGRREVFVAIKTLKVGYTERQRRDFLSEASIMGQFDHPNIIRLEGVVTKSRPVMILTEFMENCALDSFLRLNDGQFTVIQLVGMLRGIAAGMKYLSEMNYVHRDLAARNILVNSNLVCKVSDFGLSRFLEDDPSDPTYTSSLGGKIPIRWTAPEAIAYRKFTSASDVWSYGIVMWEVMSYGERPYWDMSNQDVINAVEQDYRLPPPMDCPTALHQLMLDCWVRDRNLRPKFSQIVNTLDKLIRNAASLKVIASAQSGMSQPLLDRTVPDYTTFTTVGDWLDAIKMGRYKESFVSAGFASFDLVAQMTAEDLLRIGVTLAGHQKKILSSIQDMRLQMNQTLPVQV

[19] = molecular target: Epithelial discoidin domain-containing receptor 1 (Homo sapiens) (UniProt Q08345); assay: Inhibition of DDR1 (unknown origin) at 1 uM preincubated for 10 mins followed by substrate addition measured for 60 to 120 mins by HTRF assay relative to control; conditions: time 70-130 min
[20] = molecular target: Proto-oncogene tyrosine-protein kinase ROS (Homo sapiens) (UniProt P08922); assay: Inhibition of ROS (unknown origin) at 1 uM preincubated for 10 mins followed by substrate addition measured for 60 to 120 mins by HTRF assay relative to control; conditions: time 70-130 min
[21] = molecular target: Tyrosine-protein kinase Fgr (Homo sapiens) (UniProt P09769); assay: Inhibition of FGR (unknown origin) at 1 uM preincubated for 10 mins followed by substrate addition measured for 60 to 120 mins by HTRF assay relative to control; conditions: time 70-130 min
[22] = molecular target: Tyrosine-protein kinase SRMS (Homo sapiens) (UniProt Q9H3Y6); assay: Inhibition of SRM (unknown origin) at 1 uM preincubated for 10 mins followed by substrate addition measured for 60 to 120 mins by HTRF assay relative to control; conditions: time 70-130 min
[23] = test system: HL-60; assay: Induction of apoptosis in human HL-60 cells assessed as viable cells at 1 uM incubated for 48 hrs by annexin V-FITC/PI staining based flow cytometry (reference value: 96.5 %); assay type: functional; conditions: read-out: Activity
[24] = molecular target: Tyrosine-protein kinase Lck (Homo sapiens) (UniProt P06239); assay: Inhibition of LCK (unknown origin) at 1 uM preincubated for 10 mins followed by substrate addition measured for 60 to 120 mins by HTRF assay relative to control; conditions: time 70-130 min
[25] = test system: HCT-116; assay: Downregulation of STAT1 S727 expression in IFNgamma-stimulated human HCT-116 cells incubated for 12 hrs followed by IFNgamma stimulation for 3 hrs by Western blot analysis; assay type: functional, cell-based; conditions: dose 1-10 µM
[26] = test system: HL-60; assay: Induction of apoptosis in human HL-60 cells assessed as necrotic cells at 5 uM incubated for 48 hrs by annexin V-FITC/PI staining based flow cytometry (reference value: 0.26 %); assay type: functional
[27] = Bioavailability in Sprague-Dawley rat at 10 mg/kg, po; assay type: ADME, organism-based; conditions: in vivo
[28] = test system: C1498; assay: Downregulation of STAT1 S727 expression in mouse C1498 cells allografted in AML Balb/C mouse model administered orally daily for 15 days measured after 3 weeks by Western blot analysis; assay type: functional, cell-based; conditions: dose 40-80 mg/kg, route po, time 15.0 day
[29] = molecular target: ALK tyrosine kinase receptor (Homo sapiens) (UniProt Q9UM73); assay: Inhibition of ALK (unknown origin) at 1 uM preincubated for 10 mins followed by substrate addition measured for 60 to 120 mins by HTRF assay relative to control; conditions: time 70-130 min
ALK tyrosine kinase receptor (Homo sapiens), sequence (Q9UM73 19-1620 limits assumed): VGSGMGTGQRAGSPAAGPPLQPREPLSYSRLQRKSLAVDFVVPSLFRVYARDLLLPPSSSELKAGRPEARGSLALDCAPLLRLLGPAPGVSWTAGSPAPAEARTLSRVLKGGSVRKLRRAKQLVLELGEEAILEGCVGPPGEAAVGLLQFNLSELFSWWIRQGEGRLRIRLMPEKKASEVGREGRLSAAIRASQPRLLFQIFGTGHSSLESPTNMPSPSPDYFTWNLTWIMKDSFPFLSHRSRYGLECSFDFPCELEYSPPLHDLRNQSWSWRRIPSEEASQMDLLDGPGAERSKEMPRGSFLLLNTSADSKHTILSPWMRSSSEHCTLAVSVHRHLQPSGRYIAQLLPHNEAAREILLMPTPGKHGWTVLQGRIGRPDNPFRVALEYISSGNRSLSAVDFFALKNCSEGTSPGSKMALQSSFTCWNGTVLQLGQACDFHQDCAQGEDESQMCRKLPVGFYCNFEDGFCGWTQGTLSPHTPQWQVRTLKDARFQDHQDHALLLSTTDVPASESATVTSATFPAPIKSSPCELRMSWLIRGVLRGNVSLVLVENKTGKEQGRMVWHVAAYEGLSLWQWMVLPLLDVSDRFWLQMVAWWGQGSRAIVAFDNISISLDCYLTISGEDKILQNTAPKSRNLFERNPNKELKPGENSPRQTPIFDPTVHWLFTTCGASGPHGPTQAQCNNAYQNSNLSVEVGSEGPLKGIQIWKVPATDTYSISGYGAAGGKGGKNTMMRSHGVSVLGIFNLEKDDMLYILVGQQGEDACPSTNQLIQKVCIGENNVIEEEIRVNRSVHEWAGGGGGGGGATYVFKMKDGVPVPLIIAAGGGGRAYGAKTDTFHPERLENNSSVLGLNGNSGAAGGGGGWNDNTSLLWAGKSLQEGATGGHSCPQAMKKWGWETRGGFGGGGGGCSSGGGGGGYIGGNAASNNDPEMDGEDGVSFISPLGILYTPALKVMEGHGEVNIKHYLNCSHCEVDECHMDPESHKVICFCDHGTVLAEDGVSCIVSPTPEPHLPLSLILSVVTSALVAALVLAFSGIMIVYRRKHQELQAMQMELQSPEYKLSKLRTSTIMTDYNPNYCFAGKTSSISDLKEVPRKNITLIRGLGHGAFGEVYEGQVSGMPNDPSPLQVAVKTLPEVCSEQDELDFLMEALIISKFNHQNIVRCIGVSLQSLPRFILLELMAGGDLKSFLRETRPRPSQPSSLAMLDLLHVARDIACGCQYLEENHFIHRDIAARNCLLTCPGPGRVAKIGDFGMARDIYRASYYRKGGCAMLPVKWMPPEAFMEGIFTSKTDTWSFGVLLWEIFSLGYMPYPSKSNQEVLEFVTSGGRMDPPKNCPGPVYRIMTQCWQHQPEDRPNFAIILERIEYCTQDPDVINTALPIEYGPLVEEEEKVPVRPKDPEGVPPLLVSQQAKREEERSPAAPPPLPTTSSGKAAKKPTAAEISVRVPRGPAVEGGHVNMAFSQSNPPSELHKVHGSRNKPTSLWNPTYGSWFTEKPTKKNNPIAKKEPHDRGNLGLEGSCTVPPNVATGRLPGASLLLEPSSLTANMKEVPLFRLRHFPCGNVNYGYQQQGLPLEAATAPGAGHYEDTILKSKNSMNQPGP

[30] = Tmax in Sprague-Dawley rat at 10 mg/kg, po; assay type: ADME, organism-based; conditions: in vivo
[31] = molecular target: Ephrin type-B receptor 4 (Homo sapiens) (UniProt P54760); assay: Inhibition of EPHB4 (unknown origin) at 1 uM preincubated for 10 mins followed by substrate addition measured for 60 to 120 mins by HTRF assay relative to control; conditions: time 70-130 min
Ephrin type-B receptor 4 (Homo sapiens), sequence (P54760 whole entry): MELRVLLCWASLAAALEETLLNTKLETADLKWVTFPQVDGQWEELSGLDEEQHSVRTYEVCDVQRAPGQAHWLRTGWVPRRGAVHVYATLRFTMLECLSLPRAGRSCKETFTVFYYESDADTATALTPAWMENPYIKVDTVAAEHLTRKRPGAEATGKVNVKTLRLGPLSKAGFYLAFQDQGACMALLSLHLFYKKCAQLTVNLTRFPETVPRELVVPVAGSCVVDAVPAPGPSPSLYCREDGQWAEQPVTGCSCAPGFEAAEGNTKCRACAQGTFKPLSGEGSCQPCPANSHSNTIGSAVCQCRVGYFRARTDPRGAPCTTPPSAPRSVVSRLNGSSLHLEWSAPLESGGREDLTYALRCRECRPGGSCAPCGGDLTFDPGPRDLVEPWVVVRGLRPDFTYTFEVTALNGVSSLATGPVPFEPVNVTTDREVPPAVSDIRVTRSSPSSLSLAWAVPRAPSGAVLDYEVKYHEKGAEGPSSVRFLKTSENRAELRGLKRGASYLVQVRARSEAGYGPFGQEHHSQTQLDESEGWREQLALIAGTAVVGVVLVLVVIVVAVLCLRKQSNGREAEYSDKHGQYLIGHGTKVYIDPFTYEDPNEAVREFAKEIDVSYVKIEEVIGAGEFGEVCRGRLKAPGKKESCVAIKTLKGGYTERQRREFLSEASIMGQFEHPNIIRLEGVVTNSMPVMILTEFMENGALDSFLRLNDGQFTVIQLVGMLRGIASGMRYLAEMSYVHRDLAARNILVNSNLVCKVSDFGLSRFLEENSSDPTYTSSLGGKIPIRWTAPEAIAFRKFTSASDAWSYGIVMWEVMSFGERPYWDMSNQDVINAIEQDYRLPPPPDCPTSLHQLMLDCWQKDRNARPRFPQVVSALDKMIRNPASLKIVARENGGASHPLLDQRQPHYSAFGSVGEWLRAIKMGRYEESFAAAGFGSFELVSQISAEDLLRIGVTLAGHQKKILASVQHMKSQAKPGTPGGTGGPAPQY

[32] = molecular target: CDK1/Cyclin A (Homo sapiens) (UniProt P06493+P20248); assay: Inhibition of CDK1/Cyclin A2 (unknown origin) at 1 uM preincubated for 10 mins followed by substrate addition measured for 60 to 120 mins by HTRF assay relative to control; assay type: protein-complex assay; conditions: time 70-130 min

For `NC(=O)c1cccc(-c2cnc3[nH]ccc3c2)c1`, the GI50 [1] was 1570 nM, the GI50 [2] was 1000 nM and the inhibition [3] was 0%. The Activity [4] was “Non-Toxic”, the inhibition [5] was 31.5% and the Cmax [6] was 206 ng/mL. It also gave an inhibition [7] of 38.9%, an inhibition [8] of 0% and an inhibition [9] of 0%. The inhibition [10] was 15.4%, the Activity [11] was 5.04% and the inhibition [12] was 4.02%. For the same compound, the GI50 [13] was over 100000 nM, the IC50 [14] was 51.9 nM and the Activity [15] was “Active”. The Activity [16] was “Dose-Dependent Effect”, the GI50 [17] was over 50000 nM and the inhibition [18] was 13.5%. The inhibition [19] was 20%, the inhibition [20] was 8.63% and the inhibition [21] was 14.9%. It also gave an inhibition [22] of 0%, a viability at 1 µM [23] of 93.3% and an inhibition [24] of 1.59%. For the same compound, the Activity [25] was “Dose-Dependent Effect”, the Activity [26] was 8.48% and the bioavailability [27] was 28%. The Activity [28] was “Dose-Dependent Effect”, the inhibition [29] was 19.1% and the Tmax [30] was 1 h. The inhibition [31] was 0% and the inhibition [32] was 8.45%.
